Columns and labels:
Assay in all cases: Test D pre-/postemergence plant response
Format in all cases: in vivo
Conditions in all cases: Postemergence
[1] = system: mallow (common mallow, Malva sylvestris)
How it was run: (§1)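 Visual 0–100 scoring (100 = complete control) versus untreated controls after 14–21 greenhouse days. Compounds, formulated in surfactant-containing non-phytotoxic solvent, were applied preemergence to seeded loam/sand and postemergence to 2–18 cm plants (1–4 leaves).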

[2] = system: green foxtail (Setaria viridis)
How it was run: as §1

[3] = system: spanishneedles (Bidens bipinnata)
How it was run: as §1

[4] = system: dallisgrass (Paspalum dilatatum)
How it was run: as §1

[5] = system: sandbur (southern sandbur, Cenchrus echinatus)
How it was run: as §1

[6] = system: johnsongrass (Sorghum halepense)
How it was run: as §1

[7] = system: prickly sida (Sida spinosa)
How it was run: as §1

[8] = system: goosegrass (Eleusine indica)
How it was run: as §1

[9] = system: itchgrass (Rottboellia cochinchinensis)
How it was run: as §1

[10] = system: kochia (Kochia scoparia)
How it was run: as §1

[11] = system: bluegrass (annual bluegrass, Poa annua)
How it was run: as §1

[12] = system: ragweed (common ragweed, Ambrosia elatior)
How it was run: as §1

[13] = system: dayflower (Virginia (VA) dayflower, Commelina virginica)
How it was run: as §1

[14] = system: barnyardgrass (Echinochloa crus-galli)
How it was run: as §1

[15] = 125 g ai/ha, scale 0 to 100 (0 no effect, 100 complete control)
[16] = 250 g ai/ha, scale 0 to 100 (0 no effect, 100 complete control)
[17] = 62 g ai/ha, scale 0 to 100 (0 no effect, 100 complete control)

CCCCn1c(-c2ccccc2)ncc(C(=O)C2=C(O)C3CCC(C3)C2=O)c1=O (centres unmarked) [Compound 240]
Plant response rating, Mallow ([1]; 31 g ai/ha, scale 0 to 100): 10 | Plant response rating, Mallow [1, 15]: 60 | Plant response rating, Mallow [1, 16]: 60 | Plant response rating, Mallow [1, 17]: 40 | Plant response rating, Foxtail, Green ([2]; 31 g ai/ha, scale 0 to 100): 95 | Plant response rating, Foxtail, Green [2, 15]: 98 | Plant response rating, Foxtail, Green [2, 16]: 98 | Plant response rating, Foxtail, Green [2, 17]: 98 | Plant response rating, Spanishneedles ([3]; 31 g ai/ha, scale 0 to 100): 65 | Plant response rating, Spanishneedles [3, 15]: 75 | Plant response rating, Spanishneedles [3, 16]: 75 | Plant response rating, Spanishneedles [3, 17]: 65 | Plant response rating, Dallisgrass ([4]; 31 g ai/ha, scale 0 to 100): 5 | Plant response rating, Dallisgrass [4, 15]: 75 | Plant response rating, Dallisgrass [4, 16]: 75 | Plant response rating, Dallisgrass [4, 17]: 70 | Plant response rating, Sandbur ([5]; 31 g ai/ha, scale 0 to 100): 70 | Plant response rating, Sandbur [5, 15]: 90 | Plant response rating, Sandbur [5, 16]: 90 | Plant response rating, Sandbur [5, 17]: 70 | Plant response rating, Johnsongrass ([6]; 31 g ai/ha, scale 0 to 100): 70 | Plant response rating, Johnsongrass [6, 15]: 95 | Plant response rating, Johnsongrass [6, 16]: 95 | Plant response rating, Johnsongrass [6, 17]: 90 | Plant response rating, Prickly Sida ([7]; 31 g ai/ha, scale 0 to 100): 35 | Plant response rating, Prickly Sida [7, 15]: 75 | Plant response rating, Prickly Sida [7, 16]: 75 | Plant response rating, Prickly Sida [7, 17]: 65 | Plant response rating, Goosegrass ([8]; 31 g ai/ha, scale 0 to 100): 70 | Plant response rating, Goosegrass [8, 15]: 80 | Plant response rating, Goosegrass [8, 16]: 80 | Plant response rating, Goosegrass [8, 17]: 70 | Plant response rating, Itchgrass ([9]; 31 g ai/ha, scale 0 to 100): 75 | Plant response rating, Itchgrass [9, 15]: 80 | Plant response rating, Itchgrass [9, 16]: 80 | Plant response rating, Itchgrass [9, 17]: 75 | Plant response rating, Kochia ([10]; 31 g ai/ha, scale 0 to 100): 20 | Plant response rating, Kochia [10, 15]: 65 | Plant response rating, Kochia [10, 16]: 70 | Plant response rating, Kochia [10, 17]: 65 | Plant response rating, Bluegrass ([11]; 31 g ai/ha, scale 0 to 100): 5 | Plant response rating, Bluegrass [11, 15]: 35 | Plant response rating, Bluegrass [11, 16]: 35 | Plant response rating, Bluegrass [11, 17]: 35 | Plant response rating, Ragweed ([12]; 31 g ai/ha, scale 0 to 100): 70 | Plant response rating, Ragweed [12, 15]: 80 | Plant response rating, Ragweed [12, 16]: 90 | Plant response rating, Ragweed [12, 17]: 75 | Plant response rating, Dayflower, VA ([13]; 31 g ai/ha, scale 0 to 100): 35 | Plant response rating, Dayflower, VA [13, 15]: 70 | Plant response rating, Dayflower, VA [13, 16]: 75 | Plant response rating, Dayflower, VA [13, 17]: 60 | Plant response rating, Barnyardgrass ([14]; 31 g ai/ha, scale 0 to 100): 80 | Plant response rating, Barnyardgrass [14, 15]: 95 | Plant response rating, Barnyardgrass [14, 16]: 95 | Plant response rating, Barnyardgrass [14, 17]: 95

— US8952024B2, “Herbicidal pyrimidone derivatives” (E I du Pont de Nemours and Company, priority 2009, dated 2015)
